Each block holds one molecule with its values, some of them ahead of it.
Experiment: solvent given as SMILES

- fluorescence lifetime (in ClC(Cl)Cl): 6.4 ns
Compound: CCCCCCN1C(=O)C(c2ccc(-c3ccc(-n4c5ccccc5c5ccccc54)cc3)cc2)=C(c2ccc(-c3ccc(-n4c5ccccc5c5ccccc54)cc3)cc2)C1=O
- fluorescence lifetime (in c1ccc2c(c1)c1ccccc1n2-c1ccc(-c2ccc(-n3c4ccccc4c4ccccc43)cc2)cc1): 5.5 ns

- fluorescence lifetime (in C1CCCCC1): 4 ns
- fluorescence lifetime (in CC#N): 5.4 ns
- fluorescence lifetime (in CO): 3.1 ns
- fluorescence lifetime (in O): 4.4 ns
Compound: Nc1ccc2cn[nH]c2c1

Compound: CN(C)c1ccc(-c2nc3c(c4c2-c2ccccc2CC4)-c2ccccc2CC3)cc1
- fluorescence lifetime (in C1CCOC1): 0.91 ns
- fluorescence lifetime (in CC#N): 1.19 ns
- fluorescence lifetime (in CCOC(C)=O): 0.75 ns
- fluorescence lifetime (in CS(C)=O): 2.13 ns
- fluorescence lifetime (in Cc1ccccc1): 0.27 ns
- fluorescence lifetime (in ClCCl): 0.8 ns

- fluorescence lifetime (in CC1CCCCC1): 3.6 ns
- fluorescence lifetime (in CC#N): 4.2 ns
Compound: C(=C\c1c2ccccc2cc2ccccc12)/c1ccccc1

Compound: Cn1cccc1-c1cc(C#N)ccc1C#N
- fluorescence lifetime (in C1CCOC1): 13.1 ns
- fluorescence lifetime (in CC#N): 2.8 ns
- fluorescence lifetime (in CCCCCC): 7.5 ns
- fluorescence lifetime (in CCCCOCCCC): 11.4 ns
- fluorescence lifetime (in CCOCC): 12.6 ns

- fluorescence lifetime (in CCCCCCCCO): 0.64 ns
- fluorescence lifetime (in CCO): 0.06 ns
- fluorescence lifetime (in CO): 0.04 ns
- fluorescence lifetime (in ClC(Cl)Cl): 0.64 ns
- fluorescence lifetime (in ClCCl): 0.32 ns
Compound: CN(C)c1ccc(/C=C/c2cc[n+](Cc3cc(C[n+]4ccc(/C=C/c5ccc(N(C)C)cc5)cc4)cc(C[n+]4ccc(/C=C/c5ccc(N(C)C)cc5)cc4)c3)cc2)cc1

- fluorescence lifetime (in ClCCl): 22 ns
Compound: CC1(C)c2ccccc2N(c2ccc(-c3n[n+]4c(o3)-c3ccccc3O[B-]4(F)F)cc2)c2ccccc21

- fluorescence lifetime (in C1CCCCC1): 0.59 ns
- fluorescence lifetime (in CC#N): 0.52 ns
- fluorescence lifetime (in CC(C)O): 0.64 ns
- fluorescence lifetime (in CCCCCC): 0.55 ns
- fluorescence lifetime (in CCCCCCCCCCCCCCCC): 0.55 ns
- fluorescence lifetime (in CCCCCCCCCCCCCCCCCl): 0.59 ns
- fluorescence lifetime (in CO): 0.62 ns
Compound: COC(=O)c1ccc(C#Cc2ccccc2)cc1

- fluorescence lifetime (in CCO): 1.93 ns
Compound: N#CC1=c2cc3c4c(c2Oc2c1cc1c5c2CCCN5CCC1)CCC[N+]=4CCC3

- fluorescence lifetime (in C1CCCCC1): 11 ns
Compound: C[Si](C)(C)c1ccc(C#N)c2ccccc12

- fluorescence lifetime (in ClCCl): 2.2 ns
Compound: COc1ccc(C2=C(C)C3=C(c4c(-c5ccccn5)nc5ccccn45)c4c(C)cc(C)n4[B-](F)(F)[N+]3=C2C)cc1

- fluorescence lifetime (in ClC(Cl)Cl): 3 ns
Compound: Cc1cc(C)c(C2=C3C=CC=[N+]3[B-]3(c4ccccc4)Oc4cc(O)cc5c6ccc(C)cc6c6cc2n3c6c45)c(C)c1 (stereo not given)

- fluorescence lifetime (in CCO): 6.4 ns
- fluorescence lifetime (in ClCCl): 7.2 ns
Compound: c1ccc2c(-c3cncnc3)c3ccccc3c(-c3cncnc3)c2c1

- fluorescence lifetime (in C1CCOC1): 2.51 ns
- fluorescence lifetime (in CS(C)=O): 1.6 ns
- fluorescence lifetime (in ClC(Cl)Cl): 1.78 ns
- fluorescence lifetime (in ClCCl): 2.56 ns
Compound: COc1ccc(-c2nc(-c3ccccc3O)c(-c3ccccc3O)n2-c2ccc(C)cc2)cc1

- fluorescence lifetime (in C1CCOC1): 5.3 ns
- fluorescence lifetime (in C1COCCO1): 5.3 ns
- fluorescence lifetime (in CC#N): 5.4 ns
- fluorescence lifetime (in CC(C)O): 5.7 ns
- fluorescence lifetime (in CCO): 5.7 ns
- fluorescence lifetime (in CO): 5.8 ns
- fluorescence lifetime (in CS(C)=O): 7.4 ns
- fluorescence lifetime (in NC=O): 7.8 ns
- fluorescence lifetime (in O): 9.1 ns
- fluorescence lifetime (in OCC(F)(F)F): 6.3 ns
- fluorescence lifetime (in [2H]O[2H]): 9.3 ns
Compound: N#Cc1cccc2[nH]ccc12

- fluorescence lifetime (in CCCCCC): 13.3 ns
- fluorescence lifetime (in ClCCl): 18.3 ns
Compound: CC(C)[Si](C#Cc1c2ccccc2c(C#C[Si](C(C)C)(C(C)C)C(C)C)c2nc3cc4c(cc3nc12)C1c2ccccc2C4c2ccccc21)(C(C)C)C(C)C

- fluorescence lifetime (in ClCCl): 18.9 ns
Compound: CCN(CC)c1ccc2c(c1)oc(=O)c1cc3c(-c4ccccc4)nn(C)c3nc12

- fluorescence lifetime (in ClCCl): 6.39 ns
Compound: CCCCCCCCCCCCN1C(=O)c2c(c3ccc4cc(-c5ccc(C(F)(F)F)cc5)c(OC)cc4c3c3c2ccc2cc(-c4ccc(C(F)(F)F)cc4)c(OC)cc23)C1=O

Compound: CC(=O)O[B-]1(OC(C)=O)OC(/C=C/c2cccc3ccccc23)=CC(/C=C/c2cccc3ccccc23)=[O+]1
- fluorescence lifetime (in C1CCOC1): 5.75 ns
- fluorescence lifetime (in CC#N): 4.5 ns
- fluorescence lifetime (in CC(C)=O): 4.67 ns
- fluorescence lifetime (in CS(C)=O): 4.24 ns
- fluorescence lifetime (in Cc1ccccc1): 5.13 ns
- fluorescence lifetime (in ClC(Cl)Cl): 5.73 ns
- fluorescence lifetime (in ClCCl): 5.99 ns

- fluorescence lifetime (in c1cc(-c2cccc(-n3c4ccccc4c4ccccc43)c2)cc(-n2c3ccccc3c3ccccc32)c1): 21 ns
Compound: N#Cc1nc(-c2ccc(N3c4ccccc4Oc4ccccc43)cc2)c(-c2ccc(N3c4ccccc4Oc4ccccc43)cc2)nc1C#N

- fluorescence lifetime (in ClCCl): 5.14 ns
Compound: CCOC(=O)COc1ccc(/C=C/c2cc(C)c3n2[B-](F)(F)[N+]2=C(c4[nH]c(C)cc4C)c4ccccc4C2=C3)cc1

- fluorescence lifetime (in CO): 1.63 ns
Compound: CCN(CC)c1ccc(/C=N/Nc2ccc(C#N)cc2)c(O)c1

Compound: Cn1nc(-c2ccccc2)c2n[nH]nc2c1=O
- fluorescence lifetime (in CC#N): 2 ns
- fluorescence lifetime (in CCO): 1.9 ns
- fluorescence lifetime (in Cc1ccccc1): 1.2 ns

- fluorescence lifetime (in ClCCl): 1.73 ns
Compound: CCOc1cccc2c1O[B-](F)(F)[n+]1c3c(c4c(c1-2)-c1ccccc1CC4)-c1ccccc1CC3

Compound: c1ccc(-c2nc(-c3ccc(N4c5ccccc5C(c5ccccc5)(c5ccccc5)c5ccccc54)cc3)cc(-c3ccc(N4c5ccccc5C(c5ccccc5)(c5ccccc5)c5ccccc54)cc3)n2)cc1
- fluorescence lifetime (in O=P(c1ccccc1)(c1ccccc1)c1ccc2oc3ccc(P(=O)(c4ccccc4)c4ccccc4)cc3c2c1): 11 ns

- fluorescence lifetime (in CC#N): 20 ns
Compound: COC(=O)CC1(C(=O)O)Oc2c(c(C(C)=O)c3c(c2C(C)=O)OCO3)O1

Compound: FC(F)(F)c1ccc(-c2nnc(-c3cc(-n4c5ccccc5c5ccccc54)c(-n4c5ccccc5c5ccccc54)cc3-c3nnc(-c4ccc(C(F)(F)F)cc4)o3)o2)cc1
- fluorescence lifetime (in Cc1ccccc1): 19.1 ns

- fluorescence lifetime (in CC#N): 2.48 ns
Compound: N#C/C(=C\c1ccc(C#N)cc1)c1nc(-c2ccc(Cl)cc2)c(-c2ccccc2)s1

- fluorescence lifetime (in ClCCl): 5.3 ns
Compound: COc1ccc(-c2cc3c(s2)c(C(=O)c2ccccc2)cc(=O)n3Cc2ccccc2)cc1

- fluorescence lifetime (in CC#N): 0.9 ns
Compound: Cc1cccc2nc3[nH]c(=O)[nH]c(=O)c3nc12

- fluorescence lifetime (in CCO): 1.49 ns
Compound: Cc1cc(-c2nnc(-c3c(C(C)C)cc(C(C)C)cc3C(C)C)o2)ccc1-n1c2ccccc2c2ccccc21

Compound: CC1=[O+][B-]2(OC(=O)C(=O)O2)OC(c2c3ccccc3cc3ccccc23)=C1
- fluorescence lifetime (in CC#N): 2.1 ns
- fluorescence lifetime (in ClC(Cl)(Cl)Cl): 1.2 ns

- fluorescence lifetime (in CCOC(C)=O): 2.64 ns
Compound: OCc1cc2c(cc3ccc4cccc5ccc2c3c45)[nH]1

- fluorescence lifetime (in C1CCOC1): 6.42 ns
- fluorescence lifetime (in CCCCCC): 5.78 ns
Compound: COc1ccccc1C1=C2C(C)=CC(C)=[N+]2[B-](F)(F)n2c(C)cc(C)c21

Compound: Cc1cc(C)c(B(c2ccc(N(c3ccccc3)c3ccccc3)cc2)c2c(C)cc(C)cc2C)c(C)c1
- fluorescence lifetime (in Cc1ccccc1): 4 ns

- fluorescence lifetime (in c1ccccc1): 4.8 ns
Compound: O=c1oc2ccc3ccc(O)cc3c2nc1-c1ccccc1

- fluorescence lifetime (in CCC(C)C): 0.43 ns
Compound: Cc1ccsc1-c1ccc(-c2ccc(-c3sccc3C)s2)s1

- fluorescence lifetime (in ClCCl): 9 ns
Compound: O=c1c2cccc3cccc(c32)c2nc3c(F)c(F)c(F)c(F)c3n12

- fluorescence lifetime (in ClCCl): 6.2 ns
Compound: CC1=C(c2ccccc2)C(C)=[N+]2C1=C(c1c(-c3ccccn3)nc3ccccn13)c1c(C)cc(C)n1[B-]2(F)F

- fluorescence lifetime (in CO): 1.69 ns
Compound: C/C(=N\Nc1ccc(C#N)cc1)c1ccccn1

Compound: COc1ccc(C2=CC(c3ccc(OC)cc3)=[O+][B-](C(C)=O)(C(C)=O)O2)cc1
- fluorescence lifetime (in CC#N): 2.1 ns
- fluorescence lifetime (in ClC(Cl)(Cl)Cl): 2.1 ns

Compound: COc1ccc(C2=C(c3ccc(-c4ccccc4)cc3)C(c3ccccc3)=[N+]3C2=Nc2c(-c4ccc(OC)cc4)c(-c4ccc(-c5ccccc5)cc4)c(-c4ccccc4)n2[B-]3(F)F)cc1
- fluorescence lifetime (in Cc1ccccc1): 0.14 ns

- fluorescence lifetime (in C1CCCCC1): 0.1 ns
Compound: CN(C)c1ccc2nc(-c3ccccc3)sc2c1Cl

- fluorescence lifetime (in C1CCCCC1): 0.63 ns
- fluorescence lifetime (in C1COCCO1): 0.73 ns
- fluorescence lifetime (in CC#N): 1.13 ns
- fluorescence lifetime (in CCO): 1.03 ns
- fluorescence lifetime (in CS(C)=O): 1.17 ns
- fluorescence lifetime (in ClC(Cl)Cl): 0.78 ns
- fluorescence lifetime (in ClCCl): 0.87 ns
Compound: COc1ccc(C#Cc2ccc(C#Cc3ccc(P(=O)(c4ccccc4)c4ccccc4)cc3)cc2)cc1

- fluorescence lifetime (in CCO): 2.3 ns
- fluorescence lifetime (in ClCCl): 6.3 ns
Compound: O=Cc1cnc(-c2c3ccccc3cc3ccccc23)nc1

- fluorescence lifetime (in ClCCl): 1.7 ns
Compound: COCCOCCOCCOCC(COCCOCCOCCOC)Oc1cc(/C=C/c2ccc(C=C(C#N)C#N)cc2)c(OC(COCCOCCOCCOC)COCCOCCOCCOC)cc1/C=C/c1ccc(C=C(C#N)C#N)cc1

- fluorescence lifetime (in C1CCOC1): 19 ns
- fluorescence lifetime (in CC#N): 21 ns
- fluorescence lifetime (in CCO): 14 ns
- fluorescence lifetime (in CN(C)C=O): 15 ns
- fluorescence lifetime (in CO): 11 ns
- fluorescence lifetime (in CS(C)=O): 5.4 ns
Compound: CSc1sc(C(N)=O)c2nnn(C)c(=O)c12

- fluorescence lifetime (in CC1CCCCC1): 5 ns
- fluorescence lifetime (in CC#N): 4.5 ns
Compound: C(=C\c1c2ccccc2cc2ccccc12)/c1cccc2ccccc12

- fluorescence lifetime (in CC#N): 0.3 ns
Compound: Fc1nc(F)c(F)c(/C=C2/C(c3c(F)c(F)nc(F)c3F)=Cc3ccccc32)c1F

- fluorescence lifetime (in CCO): 3.3 ns
- fluorescence lifetime (in O): 2.36 ns
Compound: CN(C)c1ccc2c(-c3cc(C(=O)[O-])ccc3C(=O)[O-])c3ccc(=[N+](C)C)cc-3oc2c1

Compound: Cn1nc(-c2ccccc2)c2n[nH]nc2/c1=N\c1ccccn1
- fluorescence lifetime (in CC#N): 0.33 ns
- fluorescence lifetime (in CCO): 0.44 ns
- fluorescence lifetime (in Cc1ccccc1): 0.34 ns

- fluorescence lifetime (in C1CCOC1): 2.9 ns
- fluorescence lifetime (in C1COCCO1): 2.9 ns
- fluorescence lifetime (in CC#N): 0.9 ns
- fluorescence lifetime (in CS(C)=O): 0.4 ns
Compound: N#Cc1cc2ccccc2[nH]1

- fluorescence lifetime (in C1CCOC1): 7.02 ns
- fluorescence lifetime (in ClC(Cl)Cl): 8.86 ns
- fluorescence lifetime (in ClCCl): 7.02 ns
Compound: O=C1NC(=O)c2ccc(N3CCCCC3)c3cccc1c23

- fluorescence lifetime (in CC#N): 1.5 ns
Compound: O=C(O)c1ccc(-c2nc(-c3ccccc3)c3ccccn23)cc1

- fluorescence lifetime (in C1CCOC1): 4.4 ns
Compound: CCC1(CC)c2cc(B(c3c(C)cc(C)cc3C)c3c(C)cc(C)cc3C)ccc2-c2c1c1c(c3c2C(CC)(CC)c2cc(B(c4c(C)cc(C)cc4C)c4c(C)cc(C)cc4C)ccc2-3)C(CC)(CC)c2cc(B(c3c(C)cc(C)cc3C)c3c(C)cc(C)cc3C)ccc2-1

Compound: c1cc2ccc3ccc4cc3c2cc1CCCCCCc1ccc2ccc3ccc-4cc3c2c1
- fluorescence lifetime (in Cc1ccccc1): 8.7 ns

- fluorescence lifetime (in CS(C)=O): 0.04 ns
Compound: COc1ccc(/N=N/c2c(O)c3ccccc3n(C)c2=O)c(S(=O)(=O)O)c1

Compound: Cc1c(OCC(=O)O)cc2c3c([nH]c2c1C)C(=O)CCC3
- fluorescence lifetime (in C1COCCO1): 0.54 ns
- fluorescence lifetime (in CC#N): 0.97 ns
- fluorescence lifetime (in CCO): 1.52 ns
- fluorescence lifetime (in CS(C)=O): 2.34 ns
- fluorescence lifetime (in Cc1ccccc1): 0.52 ns
- fluorescence lifetime (in O): 1.77 ns

- fluorescence lifetime (in C1COCCO1): 0.5 ns
- fluorescence lifetime (in CC#N): 0.7 ns
- fluorescence lifetime (in CCO): 1.35 ns
- fluorescence lifetime (in CO): 1.6 ns
- fluorescence lifetime (in ClCCCl): 0.74 ns
- fluorescence lifetime (in O): 7.3 ns
Compound: Cc1cccc2nc3c(=O)[nH]c(=O)[nH]c3nc12

Reference: the Deep4Chem optical property database
